Consider five molecules from ChEMBL document CHEMBL1153657, “2-[4-(o-methoxyphenyl)piperazin-1-ylmethyl]-1,3-dioxoperhydroimidazo[1,5-a]pyridine as a new selective 5-HT1A receptor ligand” (Bioorg Med Chem Lett, 1996).

Assay [1] deals with T1, 5-hydroxytryptamine receptor 1A (Rattus norvegicus, UniProt P19327).
T1 sequence (P19327 whole entry): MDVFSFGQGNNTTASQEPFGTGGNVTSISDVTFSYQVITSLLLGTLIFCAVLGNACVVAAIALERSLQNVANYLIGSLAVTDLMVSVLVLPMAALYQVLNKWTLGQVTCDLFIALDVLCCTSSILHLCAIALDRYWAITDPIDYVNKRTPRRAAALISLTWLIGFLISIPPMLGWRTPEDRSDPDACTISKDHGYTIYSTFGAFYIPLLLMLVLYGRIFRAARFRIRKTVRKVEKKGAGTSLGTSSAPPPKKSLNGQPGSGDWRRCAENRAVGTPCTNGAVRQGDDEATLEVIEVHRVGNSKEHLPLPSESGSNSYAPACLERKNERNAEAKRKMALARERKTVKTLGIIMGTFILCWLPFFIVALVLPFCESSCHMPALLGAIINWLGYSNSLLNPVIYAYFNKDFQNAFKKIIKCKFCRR
Nature of the assay: Compound was evaluated for its ability to displace [3H]8-OH-DPAT from serotonin 5-hydroxytryptamine 1A receptor in rat cerebral cortex membranes. It counts as cell membranes, Membrane.

Assay [2] deals with T2, Adrenergic receptor alpha-1 (Rattus norvegicus, UniProt P15823+P23944+P43140).
T2 sequence (P15823 whole entry): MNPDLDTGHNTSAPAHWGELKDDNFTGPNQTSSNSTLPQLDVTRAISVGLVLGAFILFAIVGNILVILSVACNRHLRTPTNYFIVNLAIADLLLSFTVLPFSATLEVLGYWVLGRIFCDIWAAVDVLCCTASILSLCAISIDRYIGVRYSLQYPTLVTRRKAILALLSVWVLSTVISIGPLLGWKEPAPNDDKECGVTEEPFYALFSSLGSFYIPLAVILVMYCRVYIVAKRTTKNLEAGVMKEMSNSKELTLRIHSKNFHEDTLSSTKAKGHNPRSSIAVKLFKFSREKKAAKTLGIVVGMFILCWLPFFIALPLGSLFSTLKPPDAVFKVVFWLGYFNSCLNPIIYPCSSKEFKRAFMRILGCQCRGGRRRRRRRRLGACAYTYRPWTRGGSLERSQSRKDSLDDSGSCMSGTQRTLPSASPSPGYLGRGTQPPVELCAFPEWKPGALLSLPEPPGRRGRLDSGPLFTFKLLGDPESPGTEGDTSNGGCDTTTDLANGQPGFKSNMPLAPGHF
T2 sequence (P23944 whole entry): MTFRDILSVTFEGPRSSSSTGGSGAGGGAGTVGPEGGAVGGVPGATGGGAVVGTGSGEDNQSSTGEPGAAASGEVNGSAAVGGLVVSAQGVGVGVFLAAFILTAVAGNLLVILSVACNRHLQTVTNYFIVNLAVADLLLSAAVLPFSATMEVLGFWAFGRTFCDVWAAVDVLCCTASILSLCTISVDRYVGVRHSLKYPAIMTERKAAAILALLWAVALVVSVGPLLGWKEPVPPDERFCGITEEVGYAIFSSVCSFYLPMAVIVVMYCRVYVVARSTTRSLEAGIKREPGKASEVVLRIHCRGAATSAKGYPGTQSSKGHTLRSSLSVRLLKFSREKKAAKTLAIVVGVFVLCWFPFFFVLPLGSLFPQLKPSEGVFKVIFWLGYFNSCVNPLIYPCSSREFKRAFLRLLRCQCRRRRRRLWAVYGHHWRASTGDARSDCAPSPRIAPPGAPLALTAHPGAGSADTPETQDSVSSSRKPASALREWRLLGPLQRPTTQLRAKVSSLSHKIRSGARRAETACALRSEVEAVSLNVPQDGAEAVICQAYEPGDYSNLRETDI
T2 sequence (P43140 whole entry): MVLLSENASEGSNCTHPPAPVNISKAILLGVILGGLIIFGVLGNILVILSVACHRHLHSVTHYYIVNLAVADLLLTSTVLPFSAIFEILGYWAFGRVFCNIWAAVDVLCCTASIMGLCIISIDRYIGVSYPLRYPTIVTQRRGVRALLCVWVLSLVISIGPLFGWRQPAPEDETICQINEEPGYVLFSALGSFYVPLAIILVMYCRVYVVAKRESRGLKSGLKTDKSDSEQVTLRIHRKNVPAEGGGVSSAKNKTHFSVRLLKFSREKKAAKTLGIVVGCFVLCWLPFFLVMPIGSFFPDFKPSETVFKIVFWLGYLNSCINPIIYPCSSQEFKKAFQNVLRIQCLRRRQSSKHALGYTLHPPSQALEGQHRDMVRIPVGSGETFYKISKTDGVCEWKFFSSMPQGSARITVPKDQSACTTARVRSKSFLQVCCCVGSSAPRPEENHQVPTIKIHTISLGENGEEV
Nature of the assay: Binding affinity at Alpha-1 adrenergic receptor in rat cerebral cortex membranes by [3H]prazosin displacement. The format is cell membranes, Membrane.

For assay [3], the target named is 5-hydroxytryptamine receptor 2A (Rattus norvegicus, UniProt P14842). Nature of the assay: Compound was evaluated for binding affinity against 5-hydroxytryptamine 2A receptor using [3H]ketanserin as a radioligand.
Sequence of 5-hydroxytryptamine receptor 2A (P14842 whole entry): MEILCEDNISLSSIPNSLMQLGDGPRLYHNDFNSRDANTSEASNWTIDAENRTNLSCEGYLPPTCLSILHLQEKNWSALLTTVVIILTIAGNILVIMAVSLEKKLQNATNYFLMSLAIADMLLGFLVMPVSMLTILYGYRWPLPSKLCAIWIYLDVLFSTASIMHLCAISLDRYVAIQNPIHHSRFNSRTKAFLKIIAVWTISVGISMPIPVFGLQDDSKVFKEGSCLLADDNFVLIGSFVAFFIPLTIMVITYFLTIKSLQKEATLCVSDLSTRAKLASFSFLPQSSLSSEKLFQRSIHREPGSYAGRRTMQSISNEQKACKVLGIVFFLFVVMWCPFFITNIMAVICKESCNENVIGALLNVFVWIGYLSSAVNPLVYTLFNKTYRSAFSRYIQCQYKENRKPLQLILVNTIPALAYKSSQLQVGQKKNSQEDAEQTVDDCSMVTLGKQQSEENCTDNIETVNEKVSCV

On to `COc1ccccc1N1CCN(CCCN2C(=O)CC3(CCCC3)CC2=O)CC1`, for which the IC50 in assay [1] was found to be 80 nM. Same read-out and setting: next, `COc1ccccc1N1CCN(CCCCN2C(=O)CC3(CCCC3)CC2=O)CC1`: 2 nM. `COc1ccccc1N1CCN(CCCN2C(=O)c3ccccc3C2=O)CC1` returned a Ki in assay [2] of 33 nM. The same measure, in the same setting: next, `COc1ccccc1N1CCN(CCN2C(=O)c3ccccc3C2=O)CC1`: 130 nM. In the case of `COc1ccccc1N1CCN(CN2C(=O)C3CCCCN3C2=O)CC1` (stereo not given), in assay [3], the Ki is 1000 nM.
